Measurements as given in PMC6222666, “Rutacecarpine Inhibits Angiogenesis by Targeting the VEGFR2 and VEGFR2-Mediated Akt/mTOR/p70s6k Signaling Pathway” (Molecules : A Journal of Synthetic Chemistry and Natural …, 2018).

Biological target: T1, VEGFR2 (vascular endothelial growth factor receptor 2) (Homo sapiens, UniProt P35968)
T1 construct: gene KDR
Assay: SPR (Biacore T200, VEGFR2 immobilized on CM5 chip); also ELISA-based kinase assay IC50 […]
Type: binding

T1 sequence (P35968 20-1356): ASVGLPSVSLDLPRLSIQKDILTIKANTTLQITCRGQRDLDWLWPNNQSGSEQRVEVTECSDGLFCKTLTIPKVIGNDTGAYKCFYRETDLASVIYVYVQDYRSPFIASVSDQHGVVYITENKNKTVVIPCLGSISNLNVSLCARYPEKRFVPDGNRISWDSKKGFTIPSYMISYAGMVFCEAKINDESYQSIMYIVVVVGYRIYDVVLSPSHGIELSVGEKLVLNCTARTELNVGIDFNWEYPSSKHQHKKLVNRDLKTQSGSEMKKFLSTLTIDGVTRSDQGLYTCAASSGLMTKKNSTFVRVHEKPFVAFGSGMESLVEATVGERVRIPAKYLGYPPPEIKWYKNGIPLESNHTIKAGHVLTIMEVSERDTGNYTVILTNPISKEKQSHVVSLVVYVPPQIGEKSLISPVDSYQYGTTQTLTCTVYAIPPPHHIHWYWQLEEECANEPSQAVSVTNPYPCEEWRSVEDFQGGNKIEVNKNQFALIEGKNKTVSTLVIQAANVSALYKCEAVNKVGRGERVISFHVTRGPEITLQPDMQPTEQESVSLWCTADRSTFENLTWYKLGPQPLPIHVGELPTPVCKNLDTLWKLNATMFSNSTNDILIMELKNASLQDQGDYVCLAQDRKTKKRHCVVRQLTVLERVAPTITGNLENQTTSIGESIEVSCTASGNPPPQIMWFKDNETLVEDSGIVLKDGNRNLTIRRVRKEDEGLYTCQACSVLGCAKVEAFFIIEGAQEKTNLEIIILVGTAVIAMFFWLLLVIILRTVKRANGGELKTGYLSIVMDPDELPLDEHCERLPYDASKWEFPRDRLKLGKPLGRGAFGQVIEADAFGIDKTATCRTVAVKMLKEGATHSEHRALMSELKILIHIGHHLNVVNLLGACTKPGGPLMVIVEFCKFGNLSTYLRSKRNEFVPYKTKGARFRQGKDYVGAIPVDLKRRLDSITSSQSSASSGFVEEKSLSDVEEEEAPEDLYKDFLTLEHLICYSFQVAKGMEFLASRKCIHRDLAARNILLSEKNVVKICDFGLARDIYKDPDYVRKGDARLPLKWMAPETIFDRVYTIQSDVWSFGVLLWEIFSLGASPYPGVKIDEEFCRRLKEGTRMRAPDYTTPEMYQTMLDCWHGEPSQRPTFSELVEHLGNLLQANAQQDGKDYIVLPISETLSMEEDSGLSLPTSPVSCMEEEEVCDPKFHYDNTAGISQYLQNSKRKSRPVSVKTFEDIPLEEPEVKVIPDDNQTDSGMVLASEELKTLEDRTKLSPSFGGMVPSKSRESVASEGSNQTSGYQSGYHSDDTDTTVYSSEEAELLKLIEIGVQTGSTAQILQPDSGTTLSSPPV

Kd: 471 nM
SMILES: O=c1c2ccccc2nc2n1CCc1c-2[nH]c2ccccc12 [rutaecarpine]
